≈ marks a conversion by molar mass, not a printed value.
Tests used:
Typhlodromus pyri = assay: LR50; higher = less toxic; details: not reported; mortality
Apis mellifera = details: acute, mortality
Anas platyrhynchos = details: reproductive
Tagia sp. = details: acute; duration: 14 days; mortality
Landoltia sp. = details: chronic/long-term; duration: 14 days
Canidae = details: oral, Dog Other, organ weight

Q: `CCC(C)(NC(=O)c1cc(Cl)c(C)c(Cl)c1)C(=O)CCl` (configuration not stated) [Zoxamide] was tested. Which LR50 (Typhlodromus pyri) did it give?
A: The LR50 was > 300 g/ha.

Q: What about the LD50 (Apis mellifera; dermal) of the same compound?
A: Its LD50 is > 100 µg/piece.

Q: What about the LD50 (Apis mellifera; oral, unspecified) of the same compound?
A: Its LD50 is > 33 µg/piece.

Q: And the LD50 (Rattus norvegicus; acute, oral, mortality)?
A: Its LD50 is > 5000 mg/kg-day.

Q: And the NOAEL (Rattus norvegicus; reproduction developmental, body weight)?
A: Its NOAEL is 360 mg/kg-day.

Q: And the LC50 (Oncorhynchus mykiss; acute, duration: 96 hours, oral, feed, mortality)?
A: Its LC50 is 0.16 µg/mL (≈ 0.475 µM).

Q: And the NOEC (Oncorhynchus mykiss; chronic/long-term, duration: 95 days)?
A: Its NOEC is 0.00348 mg/L.

Q: What about the NOEC (Anas platyrhynchos) of the same compound?
A: The NOEC was 123 mg/kg-day.

Q: And the LC50 (Tagia sp.)?
A: The LC50 was > 1070 mg/kg.

Q: What about the NOEC (Tagia sp.) of the same compound?
A: The NOEC was 66.7 mg/kg.

Q: What about the LC50 (Neomysis kadiakensis; acute, duration: 96 hours, mortality) of the same compound?
A: Its LC50 is 0.076 µg/mL (≈ 0.226 µM).

Q: And the NOEC (Neomysis kadiakensis; chronic/long-term, duration: 27 days)?
A: The NOEC was 0.0072 mg/L.

Q: What about the NOEC (Landoltia sp.) of the same compound?
A: The NOEC was 0.009 mg/L.

Q: And the NOAEL (Canidae; chronic, duration: 1 years)?
A: The NOAEL was 50 mg/kg-day.

Q: What about the NOAEL (Canidae; subchronic, duration: 90 days) of the same compound?
A: The NOAEL was 50 mg/kg-day.

Q: And the LD50 (Colinus virginianus; acute, oral, mortality)?
A: The LD50 was > 2000 mg/kg-day.

Q: And the NOEC (Colinus virginianus; reproduction developmental)?
A: The NOEC was 171 mg/kg-day.

Source: EPA's ToxValDB 9.5 (doi:10.2903/j.efsa.2017.4980)
